Legend:
[1] = test system: sedge, umbrella; experiment: Test D flooded paddy test; assay type: in vivo, Cyperus difformis; conditions: 250 g ai/ha, applied to paddy water, visual rating after 13 to 14 days, scale 0 to 100 (0 no effect, 100 complete control)
Summary of the method: (§1)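 Compounds go straight into paddy water over 2-leaf plants in pots flooded to 3 cm. Greenhouse holding lasts 13 to 14 days. Injury is scored by eye against controls from 0 (none) to 100 (complete control).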

[2] = test system: green foxtail; experiment: Test C preemergence; assay type: in vivo, Setaria viridis; conditions: 0 to 100 scale (0 no effect, 100 complete control); for Foxtail, Green plant response rating: preemergence
Summary of the method: (§2)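 Visual injury score, 0–100 (100 = complete control), taken 10 days after treatment relative to untreated controls. Pre: directed spray onto soil over sown seeds. Post: foliar spray at one- to two-leaf stage, 2–10 cm. Solvent/surfactant formulation; loam–sand soil; greenhouse.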

[3] = test system: corn; experiment: Test C postemergence; assay type: in vivo, Zea mays; conditions: 10 days
Summary of the method: as §2

[4] = test system: ryegrass, Italian; experiment: Test C postemergence; assay type: in vivo, Lolium multiflorum; conditions: 10 days
Summary of the method: as §2

[5] = test system: ragweed; experiment: Test C postemergence; assay type: in vivo, Ambrosia artemisiifolia; conditions: 10 days
Summary of the method: as §2

[6] = test system: oat, wild; experiment: Test C postemergence; assay type: in vivo, Avena fatua; conditions: 10 days
Summary of the method: as §2

[7] = test system: rice; experiment: Test D flooded paddy test; assay type: in vivo, Oryza sativa; conditions: 250 g ai/ha, applied to paddy water, visual rating after 13 to 14 days, scale 0 to 100 (0 no effect, 100 complete control)
Summary of the method: as §1

[8] = test system: oat, wild; experiment: Test C preemergence; assay type: in vivo, Avena fatua; conditions: 0 to 100 scale (0 no effect, 100 complete control); for Oat, Wild plant response rating: preemergence
Summary of the method: as §2

[9] = test system: barnyardgrass; experiment: Test C postemergence; assay type: in vivo, Echinochloa crusgalli; conditions: 10 days
Summary of the method: as §2

[10] = test system: blackgrass; experiment: Test C postemergence; assay type: in vivo, Alopecurus myosuroides; conditions: 10 days
Summary of the method: as §2

[11] = test system: ragweed; experiment: Test C preemergence; assay type: in vivo, Ambrosia artemisiifolia; conditions: 0 to 100 scale (0 no effect, 100 complete control); for Ragweed plant response rating: preemergence
Summary of the method: as §2

[12] = test system: ryegrass, Italian; experiment: Test C preemergence; assay type: in vivo, Lolium multiflorum; conditions: 0 to 100 scale (0 no effect, 100 complete control); for Ryegrass, Italian plant response rating: preemergence
Summary of the method: as §2

[13] = test system: barnyardgrass; experiment: Test C preemergence; assay type: in vivo, Echinochloa crusgalli; conditions: 0 to 100 scale (0 no effect, 100 complete control); for Barnyardgrass plant response rating: 125 g ai/ha, preemergence; for Plant response rating, Barnyardgrass: Preemergence, 500 g ai/ha, visual rating after 10 days
Summary of the method: as §2

[14] = test system: wheat; experiment: Test C preemergence; assay type: in vivo, Triticum aestivum; conditions: 0 to 100 scale (0 no effect, 100 complete control); for Wheat plant response rating: preemergence
Summary of the method: as §2

[15] = test system: ducksalad; experiment: Test D flooded paddy test; assay type: in vivo, Heteranthera limosa; conditions: 250 g ai/ha, applied to paddy water, visual rating after 13 to 14 days, scale 0 to 100 (0 no effect, 100 complete control)
Summary of the method: as §1

[16] = test system: kochia; experiment: Test C preemergence; assay type: in vivo, Bassia scoparia; conditions: 0 to 100 scale (0 no effect, 100 complete control); for Kochia plant response rating: preemergence
Summary of the method: as §2

[17] = test system: soybean; experiment: Test C postemergence; assay type: in vivo, Glycine max; conditions: 10 days
Summary of the method: as §2

[18] = test system: blackgrass; experiment: Test C preemergence; assay type: in vivo, Alopecurus myosuroides; conditions: 0 to 100 scale (0 no effect, 100 complete control); for Plant response rating, Blackgrass: Preemergence, 500 g ai/ha, visual rating after 10 days; for Blackgrass plant response rating: Test C, preemergence, 125 g ai/ha
Summary of the method: as §2

[19] = test system: corn; experiment: Test C preemergence; assay type: in vivo, Zea mays; conditions: 0 to 100 scale (0 no effect, 100 complete control); for Corn plant response rating: preemergence
Summary of the method: as §2

[20] = test system: horseweed; experiment: Test C postemergence; assay type: in vivo, Erigeron canadensis; conditions: 10 days
Summary of the method: as §2

[21] = test system: pigweed, palmer; experiment: Test C preemergence; assay type: in vivo, Amaranthus palmeri; conditions: 0 to 100 scale (0 no effect, 100 complete control); for Pigweed, Palmer plant response rating: preemergence
Summary of the method: as §2

[22] = test system: wheat; experiment: Test C postemergence; assay type: in vivo, Triticum aestivum; conditions: 10 days
Summary of the method: as §2

[23] = test system: green foxtail; experiment: Test C postemergence; assay type: in vivo, Setaria viridis; conditions: 10 days
Summary of the method: as §2

[24] = test system: kochia; experiment: Test C postemergence; assay type: in vivo, Bassia scoparia; conditions: 10 days
Summary of the method: as §2

[25] = test system: soybean; experiment: Test C preemergence; assay type: in vivo, Glycine max; conditions: 0 to 100 scale (0 no effect, 100 complete control); for Soybean plant response rating: preemergence
Summary of the method: as §2

[26] = test system: barnyardgrass; experiment: Test D flooded paddy test; assay type: in vivo, Echinochloa crus-galli; conditions: 250 g ai/ha, applied to paddy water, visual rating after 13 to 14 days, scale 0 to 100 (0 no effect, 100 complete control)
Summary of the method: as §1

[27] = test system: galium; experiment: Test C postemergence; assay type: in vivo, Galium aparine; conditions: 10 days
Summary of the method: as §2

[28] = test system: pigweed, palmer; experiment: Test C postemergence; assay type: in vivo, Amaranthus palmeri; conditions: 10 days
Summary of the method: as §2

[29] = Preemergence, 500 g ai/ha, visual rating after 10 days
[30] = 125 g ai/ha, postemergence, 0 to 100 scale, 0 no effect, 100 complete control
[31] = Postemergence, 500 g ai/ha, visual 0 to 100 scale (0 no effect, 100 complete control)

CCn1cnc(-c2cccc(C(=O)N3C[C@H](C)Oc4c(C)cccc43)c2)n1 [Compound 165]
Plant response rating, Sedge, Umbrella (Flood) [1]: 0 | Plant response rating, Foxtail, Green [2, 29]: 0 | Foxtail, Green plant response rating ([2]; Test C, 125 g ai/ha): 0 | Plant response rating, Corn [3, 30]: 0 | Plant response rating, Corn [3, 31]: 0 | Plant response rating, Ryegrass, Italian [4, 30]: 0 | Plant response rating, Ryegrass, Italian [4, 31]: 0 | Plant response rating, Ragweed [5, 30]: 0 | Plant response rating, Ragweed [5, 31]: 0 | Plant response rating, Oat, Wild [6, 30]: 0 | Plant response rating, Oat, Wild [6, 31]: 0 | Plant response rating, Rice (Flood) [7]: 0 | Plant response rating, Oat, Wild [8, 29]: 0 | Oat, Wild plant response rating ([8]; Test C, 125 g ai/ha): 0 | Plant response rating, Barnyardgrass [9, 30]: 0 | Plant response rating, Barnyardgrass [9, 31]: 10 | Plant response rating, Blackgrass [10, 30]: 0 | Plant response rating, Blackgrass [10, 31]: 10 | Plant response rating, Ragweed [11, 29]: 20 | Ragweed plant response rating ([11]; Test C, 125 g ai/ha): 0 | Plant response rating, Ryegrass, Italian [12, 29]: 0 | Ryegrass, Italian plant response rating ([12]; Test C, 125 g ai/ha): 0 | Barnyardgrass plant response rating [13]: 0 | Plant response rating, Barnyardgrass [13]: 0 | Plant response rating, Wheat [14, 29]: 0 | Wheat plant response rating ([14]; Test C, 125 g ai/ha): 0 | Plant response rating, Ducksalad (Flood) [15]: 0 | Plant response rating, Kochia [16, 29]: 0 | Kochia plant response rating ([16]; Test C, 125 g ai/ha): 0 | Plant response rating, Soybean [17, 30]: 30 | Plant response rating, Soybean [17, 31]: 30 | Plant response rating, Blackgrass [18]: 0 | Blackgrass plant response rating [18]: 0 | Plant response rating, Corn [19, 29]: 0 | Corn plant response rating ([19]; Test C, 125 g ai/ha): 0 | Plant response rating, Horseweed [20, 30]: 0 | Plant response rating, Horseweed [20, 31]: 60 | Plant response rating, Pigweed, Palmer [21, 29]: 0 | Pigweed, Palmer plant response rating ([21]; Test C, 125 g ai/ha): 0 | Plant response rating, Wheat [22, 30]: 0 | Plant response rating, Wheat [22, 31]: 0 | Plant response rating, Foxtail, Green [23, 30]: 0 | Plant response rating, Foxtail, Green [23, 31]: 0 | Plant response rating, Kochia [24, 30]: 0 | Plant response rating, Kochia [24, 31]: 0 | Plant response rating, Soybean [25, 29]: 0 | Soybean plant response rating ([25]; Test C, 125 g ai/ha): 0 | Plant response rating, Barnyardgrass (Flood) [26]: 0 | Plant response rating, Galium [27, 30]: 0 | Plant response rating, Galium [27, 31]: 0 | Plant response rating, Pigweed, Palmer [28, 30]: 0 | Plant response rating, Pigweed, Palmer [28, 31]: 10

COc1ccc(-n2cnc(C(C)(C)O)n2)cc1C(=O)N1C[C@H](C)Oc2c(C)cccc21 [Compound 280]
Plant response rating, Sedge, Umbrella (Flood) [1]: 95 | Foxtail, Green plant response rating ([2]; 500 g ai/ha): 100 | Foxtail, Green plant response rating ([2]; Test C, 125 g ai/ha): 100 | Plant response rating, Corn [3, 30]: 90 | Plant response rating, Corn [3, 31]: 90 | Plant response rating, Ryegrass, Italian [4, 30]: 90 | Plant response rating, Ragweed [5, 30]: 70 | Plant response rating, Oat, Wild [6, 30]: 80 | Plant response rating, Rice (Flood) [7]: 20 | Oat, Wild plant response rating ([8]; 500 g ai/ha): 90 | Oat, Wild plant response rating ([8]; Test C, 125 g ai/ha): 60 | Plant response rating, Barnyardgrass [9, 30]: 50 | Plant response rating, Barnyardgrass [9, 31]: 90 | Plant response rating, Blackgrass [10, 30]: 80 | Plant response rating, Blackgrass [10, 31]: 100 | Ragweed plant response rating ([11]; 500 g ai/ha): 100 | Ragweed plant response rating ([11]; Test C, 125 g ai/ha): 90 | Ryegrass, Italian plant response rating ([12]; 500 g ai/ha): 90 | Ryegrass, Italian plant response rating ([12]; Test C, 125 g ai/ha): 90 | Plant response rating, Barnyardgrass [13]: 100 | Barnyardgrass plant response rating ([13]; Test C): 100 | Wheat plant response rating ([14]; 500 g ai/ha): 90 | Wheat plant response rating ([14]; Test C, 125 g ai/ha): 70 | Plant response rating, Ducksalad (Flood) [15]: 70 | Kochia plant response rating ([16]; 500 g ai/ha): 100 | Kochia plant response rating ([16]; Test C, 125 g ai/ha): 90 | Plant response rating, Soybean [17, 30]: 100 | Plant response rating, Blackgrass [18]: 80 | Blackgrass plant response rating [18]: 70 | Corn plant response rating ([19]; 500 g ai/ha): 60 | Corn plant response rating ([19]; Test C, 125 g ai/ha): 30 | Plant response rating, Horseweed [20, 30]: 30 | Plant response rating, Horseweed [20, 31]: 60 | Pigweed, Palmer plant response rating ([21]; 500 g ai/ha): 100 | Pigweed, Palmer plant response rating ([21]; Test C, 125 g ai/ha): 100 | Plant response rating, Wheat [22, 30]: 80 | Plant response rating, Foxtail, Green [23, 30]: 60 | Plant response rating, Foxtail, Green [23, 31]: 90 | Plant response rating, Kochia [24, 30]: 60 | Soybean plant response rating ([25]; 500 g ai/ha): 100 | Soybean plant response rating ([25]; Test C, 125 g ai/ha): 90 | Plant response rating, Barnyardgrass (Flood) [26]: 25 | Plant response rating, Galium [27, 30]: 100 | Plant response rating, Galium [27, 31]: 100 | Plant response rating, Pigweed, Palmer [28, 30]: 70

Reference: patent US20260262643A1, “HERBICIDAL BENZOXAZINES” (FMC CORPORATION, priority 2022, published 2026)
